In the supplement of paper PMC4862054:

Tests used:
Conditions in all cases: incubation time: 72 h
[1] = system: HCC1599; experiment: normalised response (% of control), CellTiter-Glo; higher = more viable cells (100 = DMSO, 0 = benzethonium chloride kill control)
Method: (§1)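 DSRT, 72 h incubation, CellTox Green / CellTiter-Glo readout. Signal is normalised to DMSO and benzethonium chloride controls. Value is the normalised response at dose 3.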

[2] = system: MFM-223; experiment: as above
Method: as §1

[3] = system: MDA-MB-453; experiment: as above
Method: as §1

[4] = system: HDQ-P1; experiment: as above
Method: as §1

[5] = system: SK-BR-3; experiment: as above
Method: as §1

[6] = system: BT-474; experiment: as above
Method: as §1

[7] = system: MDA-MB-231; experiment: as above
Method: as §1

[8] = system: MDA-MB-468; experiment: as above
Method: as §1

[9] = system: HCC1143; experiment: as above
Method: as §1

[10] = system: MCF-10A; experiment: as above
Method: as §1

[11] = system: CAL-148; experiment: as above
Method: as §1

[12] = system: CAL-85-1; experiment: as above
Method: as §1

[13] = system: Hs578T; experiment: as above
Method: as §1

[14] = system: BT-549; experiment: as above
Method: as §1

[15] = system: DU-4475; experiment: as above
Method: as §1

[16] = system: HCC1937; experiment: as above
Method: as §1

[17] = system: MDA-MB-436; experiment: as above
Method: as §1

[18] = system: CAL-51; experiment: as above
Method: as §1

[19] = system: CAL-120; experiment: as above
Method: as §1

[20] = system: HCC1599; experiment: normalised response (% of control), CellTox Green; higher = less cell death (100 = DMSO, 0 = benzethonium chloride kill control)
Summary of the method: (§2)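 Breast cancer cell lines, seeded at 20 µl suspension per well, were incubated for 72 h in 384-well plates containing compound at 5 concentrations. These concentrations rose in 10-fold steps over a 10,000-fold range set for each compound. CellTox Green fluorescence (485/520 nm) was read, then CellTiter-Glo luminescence after 10 min at room temperature, and each plate was normalised to 0.1 % DMSO (100) and a positive kill control (0). Values are normalised signals, each at one concentration.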

[21] = system: MFM-223; experiment: as above
Summary of the method: as §2

[22] = system: MDA-MB-453; experiment: as above
Summary of the method: as §2

[23] = system: HDQ-P1; experiment: as above
Summary of the method: as §2

[24] = system: BT-474; experiment: as above
Summary of the method: as §2

[25] = system: MDA-MB-231; experiment: as above
Summary of the method: as §2

[26] = system: MDA-MB-468; experiment: as above
Summary of the method: as §2

[27] = system: MCF-10A; experiment: as above
Summary of the method: as §2

[28] = system: CAL-148; experiment: as above
Summary of the method: as §2

[29] = system: CAL-85-1; experiment: as above
Summary of the method: as §2

[30] = system: Hs578T; experiment: as above
Summary of the method: as §2

[31] = system: BT-549; experiment: as above
Summary of the method: as §2

[32] = system: DU-4475; experiment: as above
Summary of the method: as §2

[33] = system: HCC1937; experiment: as above
Summary of the method: as §2

[34] = system: MDA-MB-436; experiment: as above
Summary of the method: as §2

[35] = system: CAL-51; experiment: as above
Summary of the method: as §2

[36] = system: CAL-120; experiment: as above
Summary of the method: as §2

[37] = system: HCC1143; experiment: as above
Summary of the method: as §2

| SMILES | normalised response [1] | normalised response [2] | normalised response [3] | normalised response [4] | normalised response [5] | normalised response [6] | normalised response [7] | normalised response [8] | normalised response [9] | normalised response [10] | normalised response [11] | normalised response [12] | normalised response [13] | normalised response [14] | normalised response [15] | normalised response [16] | normalised response [17] | normalised response [18] | normalised response [19] | normalised response [20] | normalised response [21] | normalised response [22] | normalised response [23] | normalised response [24] | normalised response [25] | normalised response [26] | normalised response [27] | normalised response [28] | normalised response [29] | normalised response [30] | normalised response [31] | normalised response [32] | normalised response [33] | normalised response [34] | normalised response [35] | normalised response [36] | normalised response [37] |
| --- | --- | --- | --- | --- | --- | --- | --- | --- | --- | --- | --- | --- | --- | --- | --- | --- | --- | --- | --- | --- | --- | --- | --- | --- | --- | --- | --- | --- | --- | --- | --- | --- | --- | --- | --- | --- | --- |
| CN(C)C/C=C/C(=O)Nc1cc2c(Nc3ccc(F)c(Cl)c3)ncnc2cc1O[C@H]1CCOC1 [Afatinib] (10 nM) | 118% | 104% | 88.6% | 81.2% | 64.6% | 98.9% | 99.3% | 98.1% | 106% | 59.3% | 97.9% | 97% | 101% | 112% | 106% | 97.6% | 96% | 87.7% | 94% | 109% | 69% | 82.9% | 101% | 95.2% | 96.5% | 70.8% | 12.3% | 97.5% | 94.8% | 97.6% | 67.8% | 97.6% | 113% | 96.1% | 109% | 95.5% |  |
| OC[C@H]1O[C@@H](n2cnc3c2N=CNC[C@H]3O)C[C@@H]1O [Pentostatin] (100 nM) | 107% | 100% | 101% | 99% | 100% | 93.3% | 106% | 96.9% | 104% | 102% | 97.8% | 100% | 104% | 96.1% | 106% | 99.4% | 96.6% | 86.6% | 103% | 100% | 99.5% | 103% | 77.7% | 101% | 123% | 104% | 94.7% | 55.8% | 106% |  | 99.5% | 101% | 96.4% | 90.5% | 102% | 103% | 88.7% |
| COc1cccc2c1C(=O)c1c(O)c3c(c(O)c1C2=O)C[C@@](O)(C(=O)CO)C[C@@H]3O[C@H]1C[C@H](N)[C@H](O)[C@H](C)O1 [Doxorubicin] (10 nM) | 98.8% | 108% | 106% | 102% | 107% | 103% | 104% | 106% | 109% | 98.4% | 111% | 103% | 106% | 103% | 104% | 101% | 92.5% | 91.8% | 98.1% | 118% | 107% | 105% | 110% | 98% |  | 91.5% | 90% | 107% | 100% | 111% | 82.1% | 101% | 91.2% | 94.8% | 107% | 96.7% | 112% |
| C=CCNC1=C2C[C@@H](C)C[C@H](OC)[C@H](O)[C@@H](C)/C=C(\C)[C@H](OC(N)=O)[C@@H](OC)/C=C\C=C(/C)C(=O)NC(=CC1=O)C2=O [Tanespimycin] (100 nM) | 93.8% | 53.7% | 27.9% | 61.1% | 44.2% | 99.3% | 95.9% | 97.3% | 49.5% | 50% | 85.5% | 98.8% | 66.7% | 47.2% | 86.4% | 70.8% | 47.3% | 47.6% | 85.8% | 103% | 99% | 84.5% | 81.7% | 76.6% |  | 111% | 69.5% | 71.8% | 74.2% | 100% | 91.7% | 93.8% | 98.7% | 67.8% | 82.5% | 90.5% | 90.8% |
| COc1cccc2cc(-c3nc([C@H]4CC[C@H](C(=O)O)CC4)n4ncnc(N)c34)[nH]c12 [OSI-027] (100 nM) | 114% | 91.3% | 74.2% | 97% | 77.3% | 94.8% | 95.3% | 92.1% | 101% | 86.7% | 100% | 96.6% | 95.3% | 98.3% | 100% | 98.2% | 92% | 103% | 92.9% | 102% | 105% | 101% | 114% | 99.4% | 76.7% | 77.1% | 98.3% | 102% | 95.9% | 108% | 93.2% | 98.5% | 90.9% |  | 105% | 97.6% |  |
| CN1CC[C@H](c2c(O)cc(O)c3c(=O)cc(-c4ccccc4Cl)oc23)[C@H](O)C1 [Alvocidib] (100 nM) | 108% | 96.9% | 122% | 86.5% | 87.8% | 85.8% | 90.8% | 91.9% | 102% | 100% | 100% | 104% | 103% | 95.5% | 94.1% | 99.2% | 75.9% | 81.3% | 86.2% | 108% | 106% | 106% | 92.7% | 98.4% | 69% | 111% | 91.8% | 103% | 91.1% |  | 101% | 96.8% | 113% | 69.6% | 102% | 97.2% | 114% |
| CC(=O)O[C@]1(C(C)=O)CC[C@H]2[C@@H]3C=C(C)C4=CC(=O)CC[C@]4(C)[C@H]3CC[C@@]21C [Megestrol acetate] (100 nM) | 102% | 99.1% | 86.9% | 95.6% | 94.3% | 109% | 111% | 90.4% | 95.7% | 104% | 97.4% | 104% | 106% | 109% | 99.4% | 104% | 101% | 109% | 96.5% | 83.5% | 99.2% | 104% | 81.5% | 101% | 116% | 149% | 64.5% | 66.4% | 103% |  | 95.4% | 99.9% | 68.3% | 107% | 105% | 103% | 74% |
| Nc1nc(Cl)nc2c1ncn2[C@H]1C[C@H](O)[C@@H](CO)O1 [Cladribine] (10 nM) | 106% | 104% | 105% | 95.8% | 108% | 99.6% | 100% | 102% | 101% | 99.5% | 99.5% | 101% | 101% | 105% | 102% | 92.6% | 102% | 84.4% | 102% | 95% | 104% | 58.9% | 62.4% | 100% | 109% |  | 102% | 80.9% | 107% |  | 97.8% | 102% | 88.3% |  | 106% | 102% | 53.3% |
